Measured values: US4440904A, “Nonapeptide anti-secretory agents” (American Home Products Corporation, priority 1983, dated 1984)
Bridge positions count the residues as written; N and C are the ends. Square brackets hold non-standard residues; d marks the D form. Peptide text beside a SMILES is read from it.

Key:
[1] = tested on: growth hormone (GH); assay: Growth hormone suppression in arginine-stimulated, Nembutal-anesthetized rats (GH by radioimmunoassay); type: in vivo, rat; details: for GH: albino male rats, time 15 minutes, arginine stimulation, saline control 90 ± 14, *p <0.01
Experimental: The product of the preceding example illustrates the activity of the compounds of this invention for growth hormone suppression in the following standard procedure:
Albino male rats are administered Nembutal intraperitoneally at a dose of 50 milligrams per kilogram. Fifteen minutes later a subcutaneous injection of the compound of Example 2 or physiological saline (control) is administered. Ten minutes later 0.5 milliliters of arginine (300 milligrams per milliliter, pH 7.2) is injected into the heart. Five minutes after receipt of the arginine the rats are decapitated and blood is collected into trasylol-EDTA. An appropriate aliquot is assayed for growth hormone (GH) by radioimmunoassay.

[2] = tested on: total acid output; assay: Gastric anti-secretory activity in pylorus-ligated rats; type: in vivo, rat; details: male Sprague-Dawley rats, pyloric ligation, 2 milligram per kilogram subcutaneous, four-hour test period
Experimental: Male Charles River rats of Sprague-Dawley strain and 190 to 240 grams body weight are food deprived for 24 hours with water ad libitum until the test. Groups of ten rats each are assigned to either control or drug treatment. Pyloric ligation was performed under ether anesthesia through a midline laparotomy, and either control vehicle (0.25 methylcellulose) or drug in control vehicle was administered subcutaneously. The rats are sacrificed by CO2 asphyxiation four hours after pyloric ligation. The stomachs are removed and the gastric contents emptied into graduated centrifuge tubes. The gastric samples are centrifuged for 20 minutes and those obviously contaminated by food, blood or feces are discarded. The volume of gastric fluid is recorded and the acid concentration of 1.0 milliliter sample aliquots is measured by electrometric titration to pH 7.0 with 0.1 N NaOH. The calculated product of gastric volume (ml/4 hr) and acid concentration (mEq/L) estimates the total acid output (TAO, mEq/4 hr) over the four-hour test period.

Compound	GH ([1]; dose 200 μg/kg subcutaneous) [ng/mL]	GH ([1]; dose 1,000 μg/kg subcutaneous) [ng/mL]	growth hormone suppression potency compared with somatostatin ([1]; rats, subcutaneous)	decrease of total acid output [2] [%]
C[C@@H](O)[C@@H]1NC(=O)[C@H](CCCCN)NC(=O)[C@@H](Cc2c[nH]c3ccccc23)NC(=O)[C@H](Cc2ccccc2)NC(=O)[C@@H](NC(=O)[C@H](Cc2ccc(O)cc2)NC(=O)[C@@H](N)Cc2c[nH]cn2)CSSC[C@@H](C(=O)N[C@@H](Cc2ccccc2)C(=O)O)NC1=O [Example 2, L-Histidyl-L-tyrosyl-L-cysteinyl-L-phenylalanyl-D-tryptophyl-L-lysyl-L-threonyl-L-cysteinyl-L-phenylalanine cyclic (3-8) disulfide] (H-HYCF[dW]KTCF-OH; disulfide 3-8)	31 ± 10	41 ± 8	substantially equipotent with somatostatin	73
C[C@H](N)C(=O)NCC(=O)N[C@H]1CSSC[C@@H](C(=O)O)NC(=O)[C@H](CO)NC(=O)[C@H]([C@@H](C)O)NC(=O)[C@H](Cc2ccccc2)NC(=O)[C@H]([C@@H](C)O)NC(=O)[C@H](CCCCN)NC(=O)[C@H](Cc2c[nH]c3ccccc23)NC(=O)[C@H](Cc2ccccc2)NC(=O)[C@H](Cc2ccccc2)NC(=O)[C@H](CC(N)=O)NC(=O)[C@H](CCCCN)NC1=O [Somatostatin, reference compound]	34 ± 3			
